Measurements taken from US20230312556A1, “ARYLAMIDE COMPOUND, PHARMACEUTICAL COMPOSITION COMPRISING SAME, AND PREPARATION METHOD THEREFOR AND USE THEREOF” (SICHUAN KELUN-BIOTECH BIOPHARMACEUTICAL CO., LTD., priority 2020, published 2023).

Key:
[1] = biological target: mutant BRAF enzyme (BRAF-V600E) (Homo sapiens (Human), UniProt P15056, V600E); assay: RAF inhibition assay (TB-PMAP2K1 kit), BRAF-V600E; type: biochemical; settings: FLUORESCEIN-MAP2K1 substrate, 60 min reaction
[2] = biological target: mutant CRAF enzyme (RAF1 Y340D and Y341D) (Homo sapiens (Human), UniProt P04049, Y340D/Y341D); assay: RAF inhibition assay (TB-PMAP2K1 kit), mutant CRAF; type: biochemical; settings: FLUORESCEIN-MAP2K1 substrate, 60 min reaction
mutant CRAF enzyme (RAF1 Y340D and Y341D), sequence (P04049 whole entry Y340D/Y341D): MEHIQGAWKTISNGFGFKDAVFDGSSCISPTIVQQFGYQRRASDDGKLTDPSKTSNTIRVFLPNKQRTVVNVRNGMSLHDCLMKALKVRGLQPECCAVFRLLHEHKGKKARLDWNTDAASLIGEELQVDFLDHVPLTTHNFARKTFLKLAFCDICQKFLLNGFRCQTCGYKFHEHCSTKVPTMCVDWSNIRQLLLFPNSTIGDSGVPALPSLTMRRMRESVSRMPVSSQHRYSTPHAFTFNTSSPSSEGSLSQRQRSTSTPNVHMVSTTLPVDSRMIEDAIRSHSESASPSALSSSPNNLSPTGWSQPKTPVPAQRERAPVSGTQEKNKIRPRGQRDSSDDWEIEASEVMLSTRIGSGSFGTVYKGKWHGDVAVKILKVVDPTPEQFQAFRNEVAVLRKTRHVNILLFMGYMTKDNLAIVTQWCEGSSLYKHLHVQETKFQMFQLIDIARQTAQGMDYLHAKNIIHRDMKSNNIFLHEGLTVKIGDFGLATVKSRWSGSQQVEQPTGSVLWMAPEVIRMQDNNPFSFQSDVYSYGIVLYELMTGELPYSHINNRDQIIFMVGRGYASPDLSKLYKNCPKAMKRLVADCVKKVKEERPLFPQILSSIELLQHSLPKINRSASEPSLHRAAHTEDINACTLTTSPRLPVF

mutant BRAF enzyme (BRAF-V600E), sequence (P15056 whole entry V600E): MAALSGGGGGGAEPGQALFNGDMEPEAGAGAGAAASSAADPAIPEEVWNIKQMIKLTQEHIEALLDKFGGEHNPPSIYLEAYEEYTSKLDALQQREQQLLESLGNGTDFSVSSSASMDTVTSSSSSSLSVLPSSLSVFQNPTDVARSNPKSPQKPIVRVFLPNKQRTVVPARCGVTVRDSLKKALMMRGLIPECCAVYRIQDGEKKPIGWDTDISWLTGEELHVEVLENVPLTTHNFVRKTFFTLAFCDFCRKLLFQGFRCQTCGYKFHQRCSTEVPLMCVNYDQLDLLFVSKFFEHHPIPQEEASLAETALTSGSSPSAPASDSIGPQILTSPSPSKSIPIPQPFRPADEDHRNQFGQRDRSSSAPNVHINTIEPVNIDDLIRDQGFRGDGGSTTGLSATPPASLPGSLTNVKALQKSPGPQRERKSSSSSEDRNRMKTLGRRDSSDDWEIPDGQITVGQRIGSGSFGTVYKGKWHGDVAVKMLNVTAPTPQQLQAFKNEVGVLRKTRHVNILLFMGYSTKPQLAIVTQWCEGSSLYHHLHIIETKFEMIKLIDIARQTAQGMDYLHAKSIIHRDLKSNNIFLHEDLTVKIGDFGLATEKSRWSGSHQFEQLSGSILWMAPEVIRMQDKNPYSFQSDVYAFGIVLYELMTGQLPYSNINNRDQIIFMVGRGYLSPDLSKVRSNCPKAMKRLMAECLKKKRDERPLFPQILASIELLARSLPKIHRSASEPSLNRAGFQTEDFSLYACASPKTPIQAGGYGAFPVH

SMILES	IC50 [1] [nM]	IC50 [2] [nM]
Cc1ccc2c(Nc3cc(S(C)(=O)=O)ccc3F)nccc2c1NC(=O)c1cccc2c(N)ncnc12 [Compound 89, 4-amino-N-(1-((2-fluoro-5-(methylsulfonyl)phenyl)amino)-6-methylisoquinolin-5-yl)quinazoline-8-carboxamide]	7.58 ± 0.51	4.26 ± 0.16
Cc1ccc2c(Nc3cc(F)c(F)cc3F)nccc2c1NC(=O)c1cccc2c(N)ncnc12 [Compound 90, 4-amino-N-(6-methyl-1-((2,4,5-trifluorophenyl)amino)isoquinolin-5-yl)quinazoline-8-carboxamide]	18.6 ± 2.25	14.2 ± 6.59
Nc1ncnc2c(C(=O)Nc3c(F)ccc4c(Nc5cccc(Cl)c5F)nccc34)cccc12 [Compound 92, 4-amino-N-(1-((3-chloro-2-fluorophenyl)amino)-6-fluoroisoquinolin-5-yl)quinazoline-8-carboxamide]	5.34 ± 0.75	10.8 ± 4.78
Cc1ccc2c(Nc3cccc(Cl)c3F)nccc2c1NC(=O)c1ccc(F)c2c(N)ncnc12 [Compound 93, 4-amino-N-(1-((3-chloro-2-fluorophenyl)amino)-6-methylisoquinolin-5-yl)-5-fluoroquinazoline-8-carboxamide]	5.03 ± 0.54	5.73 ± 0.36
Cc1ccc2c(Nc3c(F)cc(F)cc3F)nccc2c1NC(=O)c1cccc2c(N)ncnc12 [Compound 94, 4-amino-N-(6-methyl-1-((2,4,6-trifluorophenyl)amino)isoquinolin-5-yl)quinazoline-8-carboxamide]	3.46 ± 0.22	4.24 ± 0.17
